Data taken from patent publication US20240082228A1, “SARS-COV-2 THERAPEUTICS” (priority 2021, published 2024).
Several values for one entry are separate records, joined by “and”; a condition that tells them apart may be missing. Equal entries are not always repeated. Where two headings read alike, the source gives them in different places.

How the values were obtained:
[1] = for Average Cell Number (1 uM) / Cell Number (1 uM) / Normalized Cell Number (1 uM): compound at 1 uM; for Average Cell Number (1 uM) / Average Cell Number (5 uM): average of normalized cell number, n=3, relative to DMSO; for Cell Number (1 uM) / Normalized Cell Number (1 uM) / Cell Number (5 uM) / Normalized Cell Number (5 uM): single replicate; for Cell Number (1 uM) / Cell Number (5 uM): raw cell count; for Normalized Cell Number (1 uM) / Normalized Cell Number (5 uM): relative to negative control DMSO; for Average Cell Number (5 uM) / Cell Number (5 uM) / Normalized Cell Number (5 uM): compound at 5 uM
SARS-CoV-2 = experiment: microbe, parasite or virus in culture; assay type: cell-based; conditions: for activity at 1 µM: Severe acute respiratory syndrome coronavirus 2, 1 uM, read-out: Normalized Infection (1 uM); for activity at 5 µM: Severe acute respiratory syndrome coronavirus 2, 5 uM, read-out: Normalized Infection (5 uM); for HIT: overall, 1 or 5 uM
[2] = 1 uM, average log2FC infection (n=3) relative to DMSO
[3] = 5 uM, average log2FC infection (n=3) relative to DMSO
[4] = single replicate, relative to negative control DMSO
[5] = 1 uM, single replicate, relative to negative control DMSO
[6] = 5 uM, single replicate, relative to negative control DMSO

SMILES | Toxic (1 uM) [1] | Toxic (5 uM) [1] | Average Cell Number (1 uM) [1] | Cell Number (1 uM) [1] | Normalized Cell Number (1 uM) [1] | Average Cell Number (5 uM) [1] | Cell Number (5 uM) [1] | Normalized Cell Number (5 uM) [1] | HIT (2 Std, 1 uM) (SARS-CoV-2; 1 uM) | Average Infection (1 uM) (SARS-CoV-2; [2]) | Average Infection (5 uM) (SARS-CoV-2; [3]) | activity at 1 µM (SARS-CoV-2; [4]) [%] | activity at 5 µM (SARS-CoV-2; [4]) [%] | HIT (SARS-CoV-2) | HIT (2 Stdv, 5 uM) (SARS-CoV-2; 5 uM) | further results
C#C[C@]1(O)CC[C@H]2[C@@H]3CCC4=CCCC[C@@H]4[C@H]3C(=C)C[C@@]21CC [Desogestrel, desogestrel] | 0 (non-toxic (Normalized Cell number>0.65) | 0 (non-toxic (Normalized Cell number>0.65) | 0.8768 | 5131 and 5212 and 5072 | 0.8756 and 0.8894 and 0.8655 | 0.9255 | 5708 and 5824 and 4922 | 0.9632 and 0.9828 and 0.8305 | HIT | −0.4489 | −0.1002 | 80.9 | 87 | Yes | – | –
C#C[C@]1(O)CC[C@H]2[C@@H]3CCC4=CC(=O)CC[C@@H]4[C@H]3C(=C)C[C@@]21CC [Etonogestrel, etonogestrel] | 0 (non-toxic (Normalized Cell number>0.65) | – | 0.734 | 4255 and 4398 and 4251 | 0.7261 and 0.7505 and 0.7254 | 0.5829 | – | – | HIT | −0.4065 | −1.187 | 72 | – | Yes | HIT | –
CS(=O)(=O)N1CCN(Cc2cc3nc(-c4cccc5[nH]ncc45)nc(N4CCOCC4)c3s2)CC1 [GDC-0941, pictilisib] | 0 (non-toxic (Normalized Cell number>0.65) | 0 (non-toxic (Normalized Cell number>0.65) | 0.7899 | 4447 and 4698 and 4741 | 0.7589 and 0.8017 and 0.809 | 0.8826 | 5415 and 4385 and 5891 | 0.9137 and 0.7399 and 0.9941 | HIT | −2.374 | −2.82 | 14.6 | – | Yes | HIT | –
CC(C)N1CCN(Cc2cnc(-c3cc(-c4cccc5[nH]ccc45)cc4[nH]ncc34)o2)CC1 [GSK2269557, nemiralisib] | 0 (non-toxic (Normalized Cell number>0.65) | 0 (non-toxic (Normalized Cell number>0.65) | 0.8919 | 4831 and 5665 and 5184 | 0.8244 and 0.9667 and 0.8846 | 0.7914 | 4568 and 3831 and 5671 | 0.7708 and 0.6465 and 0.9569 | HIT | – | – | – | – | Yes | HIT | Average Infection (1 uM) (SARS-CoV-2): −0.7144; Average Infection (5 uM) (SARS-CoV-2): −3.347; % Infection (1 uM) (SARS-CoV-2; 1 uM, single replicate of triplicate): 17.26% and 15.32% and 15.51%; Normalized Infection (1 uM) (SARS-CoV-2; [5]): 0.6572 and 0.5833 and 0.5904; log2FC Infection (1 uM) (SARS-CoV-2; [5]): −0.6055 and −0.7776 and −0.7601; % Infection (5 uM) (SARS-CoV-2; 5 uM, single replicate of triplicate): 1.292% and 0.4698% and 5.713%; Normalized Infection (5 uM) (SARS-CoV-2; [6]): 0.08388 and 0.03051 and 0.371; log2FC Infection (5 uM) (SARS-CoV-2; [6]): −3.575 and −5.034 and −1.43
CCCCN(CCCC)CCC(O)c1cc2c(Cl)cc(Cl)cc2c2cc(C(F)(F)F)ccc12 (stereo not drawn) [Halofantrine lot −4, halofantrine] | 0 (non-toxic (Normalized Cell number>0.65) | 0 (non-toxic (Normalized Cell number>0.65) | 0.8035 | 4727 and 4541 and 4857 | 0.8067 and 0.7749 and 0.8288 | 0.6652 | – | – | HIT | −1.202 | −1.864 | 48.6 | 23.4 | Yes | HIT | –
CCCCN(CCCC)CCC(O)c1cc2c(Cl)cc(Cl)cc2c2cc(C(F)(F)F)ccc12 (stereo not drawn) [Halofantrine lot −5, halofantrine] | 0 (non-toxic (Normalized Cell number>0.65) | 0 (non-toxic (Normalized Cell number>0.65) | 0.6582 | 3755 and 3889 and 3927 | 0.6408 and 0.6637 and 0.6701 | 0.8653 | 5286 and 5054 and 5044 | 0.892 and 0.8528 and 0.8511 | HIT | −1.062 | −1.947 | – | – | Yes | HIT | –
CC(C)(C)c1cc(C(C)(C)C)c(NC(=O)c2c[nH]c3ccccc3c2=O)cc1O [Ivacaftor, ivacaftor] | – | 0 (non-toxic (Normalized Cell number>0.65) | 0.6354 | 3730 and 3662 and 3779 | 0.6365 and 0.6249 and 0.6449 | 0.735 | 4520 and 4563 and 3984 | 0.7627 and 0.77 and 0.6723 | HIT | – | – | 59.8 | 60.9 | Yes | HIT | Average Infection (1 uM) (SARS-CoV-2): −0.9235; Average Infection (5 uM) (SARS-CoV-2): −0.9409
CC1(N)CCN(c2cccnc2NC(=O)c2nc(-c3ncccc3C(F)(F)F)cnc2N)CC1 [LXS-196, lxs196] | 0 (non-toxic (Normalized Cell number>0.65) | – | 0.9125 | 5737 and 5507 and 4798 | 0.979 and 0.9398 and 0.8188 | 0.5379 | – | – | HIT | −2.123 | −6.497 | 31 | – | Yes | HIT | –
CC1(C)Cc2c(-c3ccccc3)c(-c3ccc(Cl)cc3)c(CC(=O)O)n2C1 [Licofelone, licofelone] | – | 0 (non-toxic (Normalized Cell number>0.65) | 0.6254 | 3716 and 3591 and 3687 | 0.6341 and 0.6128 and 0.6292 | 0.8061 | 4830 and 4798 and 4704 | 0.815 and 0.8096 and 0.7938 | HIT | −0.7411 | −0.555 | 59.1 | – | Yes | HIT | –
O=C(O)CC[C@H]1CC[C@@](c2cc(F)ccc2F)(S(=O)(=O)c2ccc(Cl)cc2)CC1 [MK-0752, mk-0752] | 0 (non-toxic (Normalized Cell number>0.65) | 0 (non-toxic (Normalized Cell number>0.65) | 0.6912 | 3905 and 4070 and 4177 | 0.6664 and 0.6945 and 0.7128 | 0.8746 | 5100 and 5130 and 5319 | 0.8606 and 0.8656 and 0.8975 | HIT | −0.4386 | −0.353 | 70.8 | – | Yes | – | –
